Row | Compound | melting point [°C]
1 | O=C(c1cc(C(F)(F)F)cc(C(F)(F)F)c1)N1CCC(Nc2nc3cccnc3n2Cc2ccco2)CC1Cc1ccccc1 (stereo not given) | 109
2 | Oc1cc(O)c(-c2nc(-c3ccccc3)nc(-c3ccccc3)n2)cc1Cl | 255 to 265
3 | CCOc1ccc2c(c1)C(c1ccccc1Cl)(N(C)C)C(=O)N2S(=O)(=O)c1ccc(NC(=O)N(CC)CC)cc1OC (stereo not given) | 212 to 214
4 | CC(CCC(=O)C(C)(C)OO)C1CCC2C3CC=C4CC(OC5CCCCO5)CCC4(C)C3CCC12C (stereo not given) | 130 to 131
5 | CCOC(=O)C=Cc1ccc(OCc2nc(-c3ccccc3)oc2C)cc1 | 145 to 146
6 | CC(C)c1cccc(C(C)C)c1N1C(=O)c2ccc3c4cccc5c(C#CCCCCO)ccc(c6ccc(c2c36)C1=O)c54 | > 300
7 | CN1C(=O)NC(=O)C1=Cc1cc(OCCCS(=O)(=O)c2ccccc2)ccc1[N+](=O)[O-] | 147 to 158
8 | CCCCCCCCCCCCCCCCCC(=O)n1cc(F)c(=O)[nH]c1=O | 101
9 | CCCCn1c(C)c(N)c(=O)n(C)c1=O | 74 to 75
10 | CC[C@H]1[C@H](O)C2(CC2)C(=O)N1c1ccc(C#N)c(C(F)(F)F)c1 | 106 to 110
11 | COc1ccc(-c2cc(S(=O)(=O)c3ccc(N)cc3)cc(N3CCCC3)n2)cc1 | 227 to 229
12 | CN1C2=C(C(=O)CC(C)(C)C2)C(c2ccc(Cl)c(Oc3ccccc3)c2)C2=C1CC(C)(C)CC2=O | 183 to 185
13 | NCCCCn1cnc2ccccc21 | 119 to 123
14 | CC(O)c1cncc(C2(O)CCN(CC34CC(c5ccccc53)c3ccccc34)CC2)c1 (stereo not given) | 177 to 183
15 | O=C(O)CCc1cn(Cc2ccc(OCc3ccccn3)cc2)cc1-c1ccccc1 | 109 to 110
16 | O=S(=O)(NCCc1ccc(CCO)cc1)c1cccc(C(F)(F)F)c1 | 70 to 72
17 | Cc1[nH]cnc1CC1CCc2c(C)c3ccccc3n2C1=O (stereo not given) | 226 to 229
18 | O=C(NCc1ccc(F)c(F)c1)c1cc(-n2cnn(Cc3ccc(F)cc3)c2=O)n[nH]1 | 208 to 209
19 | CCCCc1noc(-c2ncn3c2[C@@H]2CCCN2C(=O)c2c(Cl)cccc2-3)n1 | 181 to 182
20 | Clc1cc(CCc2ccccn2)c2oc(-c3nccc4ccccc34)nc2c1 | 142 to 143
21 | COc1cc(C=C[N+](=O)[O-])c2c(c1OC)CCC2 | 128 to 130
22 | Cc1c(NC(=O)c2ccc(-c3ccc(Cl)cc3)c(F)c2)ccc2cc(CN3CCCC3)cnc12 | 190 to 192
23 | C[C@@H](c1ccc(F)cc1)N1CCN(c2cc(Oc3cccc4[nH]c(=O)c(N)nc34)ncn2)CC1 | 294 to 295
24 | Cc1cc(O)c(C(C)(C)C)cc1SC(Sc1cc(C(C)(C)C)c(O)cc1C)Sc1cc(C(C)(C)C)c(O)cc1C | 204 to 205
25 | CN1C(=O)C(C(=O)Nc2ccc(Oc3nc4ccc(Cl)cc4s3)cc2)C(=O)N(C)C1=S | 213 to 215

Row | Compound | melting point [°C]
26 | CCOc1ccc(OC)cc1 | 30 to 31
27 | CC(Cl)(Cl)CC(O)(Cn1cncn1)c1ccc(Cl)cc1 (stereo not given) | 106
28 | NC(C(=O)N1CCC(F)C1)C1CCCCC1 (mixture of isomers) | > 250
29 | N#Cc1ccc(Cc2nc[nH]n2)cc1 | 151 to 153
30 | Cn1nc(Br)c([N+](=O)[O-])c1NC(C)(C)C | 75 to 77
31 | O=C(Nc1ccc(C(F)(F)F)cc1)C(Cl)=NNc1ccc(Cl)cc1 | 167 to 168
32 | O=c1[nH]c2cc(C(F)(F)F)c(N3CCOCC3)cc2n2c(=O)[nH]nc12 | > 300
33 | CC(C)(O)c1cccc2ccccc12 | 81 to 86
34 | OC1C(COC2CC2)OC(n2cnc3c(NC4CCCC4)nc(Cl)nc32)C1O (stereo not given) | 104 to 106
35 | COc1ccc(Cn2cc[nH]c2=O)cc1 | 132
36 | CCCCNc1c(C(=O)OCC)c(C)nc2[nH]c(O)nc12 | 249 to 252
37 | COc1cc([N+](=O)[O-])c(Cl)cc1NC(=O)C1CCNCC1 | 167 to 170
38 | COC(=O)c1cc(C)c(NC(=O)c2cc(C(F)(F)F)nn2-c2ncccc2Cl)c(C(=O)NC(C)C)c1 | 199 to 200
39 | O=c1c2ccccc2nc(-c2cc(-c3ccncc3)c(N3CCOCC3)s2)n1-c1ccccc1Cl | 179 to 180
40 | CCOC(=O)c1cc(COc2cc3ncnc(Nc4ccc(Cl)cc4F)c3cc2OC)ccn1 | 212 to 214
41 | CNc1onc2c1CCC2 | 52
42 | O=S1(=O)c2cccc3cccc(c23)N1CCCCN1CC=C(c2c[nH]c3ccccc23)CC1 | 203
43 | CC(NS(=O)(=O)c1ccc(Cl)cc1)P(=O)(OCCCl)OCCCl (stereo not given) | 94.5 to 98
44 | Fc1cccc(CSc2nnc(-c3ccnc(Nc4ccccn4)c3)o2)c1 | 141 to 142
45 | CN1CCN(C2CC3(C)C(CCC4C3CCC3(C)C(O)C(N5CCCCC5)CC43)CC2O)CC1 (stereo not given) | 230 to 234
46 | COc1cc(Br)c(OC)c2c1C=C([N+](=O)[O-])CC2 | 121 to 123
47 | CCCS(=O)(=O)c1ccc(NC(=O)CCCCCCCCCC=C(F)F)cc1 | 67 to 70
48 | NCC(O)CNC(=O)CCCCCCCCCCCO (stereo not given) | 119
49 | Cc1cc(C)n(-c2nc(Nc3ccccc3)c3ccccc3n2)n1 | 262 to 265

The next lines start with the values.

Row | melting point [°C] | Compound
50 | 124 to 126 | CCCc1nn(-c2ccc(C(F)(F)F)cn2)cc1CCCOc1cc(CC(=O)O)ccc1OC
51 | 95 to 98 | COC(=O)CC(C)C(=O)c1ccc2c(c1)OCC(=O)N2 (stereo not given)
52 | 165 | CCOc1c(CC)ccnc1C(=O)c1[nH]c2cc(Cl)ccc2c1CC(=O)O
53 | 192 to 193 | Cc1ccc(NC(=O)c2cccc(N3CCOCC3)c2)cc1N
54 | 138 to 139 | O=C(NO)c1ccc(OCCNS(=O)(=O)c2ccc(C(=O)Nc3ccc(Cl)c(-c4ccccn4)c3)c(Cl)c2)cc1
55 | 148 to 149 | CN1CCCC1=NC(=O)Nc1cccc2ccccc12
56 | 250 to 251 | CC(=O)c1c(C)c2c(C)[nH]c(-c3ccccc3)c2[nH]c1=O
57 | 282 to 283 | CS(=O)(=O)N1Cc2nc3c(N)nc4ccccc4c3n2CC(O)C1 (stereo not given)
58 | 208 to 209 | OC(c1cccc2nc3n(c12)CCCN3c1ccc(Cl)cc1Cl)C1CC1 (stereo not given)
59 | 120 to 125 | O=C(OC1CCCCC1)C1Oc2ccccc2Cc2ccccc2O1
60 | 156 to 157 | COc1cccc(CCOc2cccc(-c3cccc(C(=O)O)c3)n2)c1
61 | 46 to 48 | CC(=O)c1ccc2c(c1)N(C)CCC2(C)C
62 | 158 | CC1(C)Oc2ccc([N+](=O)[O-])cc2C(n2ccccc2=O)C1(O)CNC(=O)C(F)(F)F (stereo not given)
63 | 99 to 101 | CC1(C)C=Cc2ccc(F)c(C#N)c2O1
64 | 77.5 to 78 | O=C(OCCOCCO)c1ccc(O)c(Cl)c1
65 | 138 to 139 | O=C(O)CCc1oc(/C=C/c2ccccc2)nc1-c1ccccc1
66 | 254 to 256 | O=C(O)/C=C1\CCc2c(F)cc(Cl)cc21
67 | 133 to 135 | Cc1cc(Br)ccc1NC(=O)CC(=O)Sc1ccccc1
68 | > 280 | Cc1nn(-c2ccc(C(=O)O)cc2)c(O)c1-c1c(C)nn(-c2ccc(C(=O)O)cc2)c1O
69 | 121 to 122 | COc1ccc(C2=CC=CCC2(OC(C)C)C(=O)O)c(OC)c1 (stereo not given)
70 | 114 to 116 | O=c1ccn([C@H]2[C@H](O)[C@H](O)[C@@H](CO)C23CC3)c(=O)[nH]1
71 | 147 | N#Cc1ccc(S(=O)(=O)N2CCCC2c2ccc(F)cc2)cc1 (racemic)
72 | 108 to 110 | CCCCCCCCc1ccc(CCC(CC)(CCOC(C)=O)NC(C)=O)cc1 (stereo not given)
73 | 85 to 87 | Cc1cc(N(C)S(C)(=O)=O)ccc1I
74 | 210 to 212 | Cc1cc(Oc2ccc([N+](=O)[O-])cc2)c2cc3c(cc2n1)OCO3
75 | 138 to 140 | CCCc1c(OCCCS(=O)(=O)c2ccc(C(=O)CCCCC(=O)O)cc2)ccc(C(C)=O)c1O

Row | melting point [°C] | Compound
76 | 192 to 193 | CCN(CC)C[C@@H]1CCCN1CC(=O)N1c2ccccc2C(=O)Nc2cccnc21
77 | 286 to 290 | CCOC(=O)c1ncc2[nH]c3ccc(Br)cc3c2n1
78 | 175 | O=C(NCC(O)(Cn1cncn1)c1ccc(Cl)cc1Cl)c1cccnc1 (stereo not given)
79 | 158 to 160 | CCc1ncn(Nc2cccc(C)c2)c1-c1ccccc1
80 | 222 to 224 | O=C(O)CNC(=O)c1ccccc1NC(=O)c1ccccc1O
81 | 194 to 196 | CC(=O)On1c(=N)n[n+]([O-])c2ccccc21
82 | 81 to 84 | COC=C(C(=O)OC)c1ccc(CC(=O)O)cc1
83 | 122 to 124 | O=C(O)C#CC(=O)c1ccc2c(c1)OCO2
84 | 232 | N#Cc1cc(CO)nc(C(=O)Nc2ccc(F)cn2)c1
85 | 134 to 135 | CCc1noc(-c2cn(-c3cccc(Cl)c3)cn2)n1
86 | 138 to 139 | O=C(CCCI)Nc1ccccc1
87 | 97 | CC(=O)N1CCC(C(=O)c2ccc(F)cc2F)CC1
88 | 229 to 230 | O=C(O)c1cccc(-c2nc(-c3cccc(C(F)(F)F)c3)cs2)c1
89 | 90 to 92 | CC(=O)NC1CCN(CCCOc2ccc3c4c(c(=O)oc3c2)CCCC4)CC1
90 | 98 to 100 | O=C1C=C(Nc2ccccc2F)CCN1
91 | 166 to 167 | COc1ccc(-c2ccc(C(=O)NCCOc3ccc(CC(Oc4ccc(C(C)C)cc4)C(=O)O)cc3)cn2)cc1 (stereo not given)
92 | 124 | CSc1nc(Cl)c2cc(Br)ccc2n1
93 | 258 to 260 | O=C(O)c1ccc2c(c1)CCc1c(Cl)cccc1C2=O
94 | 141 | COC(=O)CN(C)c1nc(-c2ccc(-c3ccccc3)cc2)c(C(=O)OC)s1
95 | 140 | N#Cc1cnnc2ccccc12
96 | 136 | COc1cc(C(=O)c2nc(-c3ccc[nH]3)c3ccccn23)ccc1N
97 | 120 | COc1cc2c(cc1OC)C(C(S)(C#N)CCC(=O)OCCC(C)C)=NCC2 (stereo not given)
98 | 182 to 184 | COc1ccc(NN=C(Sc2ccc(C#N)cc2)C(C)=O)cc1
99 | 225 to 227 | Cc1cc2oc3ccccc3c(=O)c2cc1OCC(=O)O
100 | 121 to 127 | Cc1c(Cc2ccccc2)c(=O)n(Cc2ccccc2)c2cc(OCC(=O)NO)cc(OCC(=O)NO)c12
